Experimental data published in patent US20250092001A1, “NOVEL EXCITATORY AMINO ACID GLUTAMATE TRANSPORT MODULATORS AND METHODS USING THE SAME” (Drexel University, priority 2022, published 2025).

Experiments:
[1] = tested on: Drosophila model of Huntington's Disease (Htt model); assay: Larval locomotion assay in Drosophila Huntington's disease model; format: in vivo; settings: third instar larvae; concentrations as low as two-fold below EC50 and one-fold below EC50
Source text: FIG. 6A illustrate certain aspects of a locomotion assay used to assay the locomotive activities. […] FIGS. 6B and 6C depict the results of the locomotion assay results of wild-type Drosophila (“WT”), as well as Drosophila of a Huntington's disease model treated with vehicle (“Veh”) or with various concentrations of two exemplary GLT-1 modulators. […] The Drosophila Htt model is produced by crossing UAS-Htt([…]) male flies with elav-Gal4 virgin female flies. Both fly strains were purchased from Bloomington Drosophila Stock Center (BDSC, Indiana, USA). […] Locomotion assays were conducted by transferring the third instar larvae of flies to agar plates (FIG. 6A) and counting the number of grid lines crossed in 30 seconds.

[2] = tested on: Drosophila model of Huntington's disease; assay: Larval olfactory associative learning test; format: in vivo; settings: Elav x Htt larvae; 3.53 nM GT467, […] GT511
Procedure: FIG. 7A illustrates certain aspects of a larval olfactory associative learning used to test learning and memory. In FIG. 7A, larvae were trained with either a reinforcer solution containing sucrose (“LIN/SUC”) or a control of distilled water (“LIN/DW”). The trained larvae were then transferred to a dish having test odorant placed on one side and a control on the opposite side. […] The ΔRI (difference between LIN/SUC and LIN/DW performance scores) were then calculated for the high performers (FIG. 7B), low performers (FIG. 7C) and non-performers (FIG. 7D). […] Referring to FIG. 7A, Drosophila larvae were trained with either a reinforcer solution containing sucrose (“LIN/SUC”) or a control of distilled water (“LIN/DW”). The trained larvae were then transferred to a dish having test odorant placed on one side and a control on the opposite side. The ΔRI were then calculated for the high performers (FIG. 7B), low performers (FIG. 7C) and non-performers (FIG. 7D).

[3] = tested on: PD rats (unilaterally lesioned rodent model of PD); assay: 5-Choice Serial Reaction Time Task (5CSRTT); format: in vivo, rat; settings: compared to saline
Source text: FIG. 12 lists the training schedule for 5CSRTT (5-Choice Serial Reaction Time Task) assay with criteria for success, in accordance with some embodiments.
FIG. 13: Schematic representation of the 5CSRTT assay, in accordance with some embodiments. Rats were trained to receive food reward for a correct nose poke response to a signal light (correct trial shown in arrow connecting 1 and 3). Incorrect trials (the arrows connecting 2/3 to 1) or omissions (the arrow connecting 4 to other boxes) results in time out indicated by darkness with no Cue lights. Trial resets with variable intertrial intervals. Nose pokes made during inter trial interval (ITI) are recorded as premature responses (PMR) that codes for impulsive behavior

## COc1ccc(NC(=O)C(=O)NCC(c2ccccc2)N2CCN(C)CC2)cc1 (centres unmarked) [GT467, N1-(4-methoxyphenyl)-N2-(2-(4-methylpiperazin-1-yl)-2-phenylethyl)oxalamide]
[1]
  Locomotor ability (grid lines crossed in 30 seconds): restores the Huntington's disease model flies' locomotor ability
[2]
  Olfactory learning performance (ΔRI): improved significantly
[3]
  Omissions (OM): trend towards reducing omissions
  Percentage of correct choices (CR), cognitive performance: improves cognitive performance
  Premature responses (PMR), impulsivity: reduces impulsivity
